Data reported in patent publication US11781101B2, “3D-printed models of biological microenvironments” (Regents of the University of Minnesota, priority 2018, dated 2023).

System: HUVEC-lined conduit
Conditions: laser-triggered release of VEGF from capsules on one side of conduit
Description: To mimic the beginning of a metastatic cascade in the context of cell types relevant to the tumor microenvironment, a vascularized 3D-printed culture chamber was configured to provide spatiotemporal control over both tumor cell invasion and angiogenesis as illustrated in FIG. 28. The angiogenic mediator VEGF was introduced to promote and direct the formation of a vascular network from a pre-existing uniaxial conduit.

For VEGF, the “endothelial sprouting from the conduit” value was “numerous endothelial cells sprouted from the conduit”.
